In data set [1] the test system is HUVECs. The data set is described as follows: Capillary-like tube formation assay (tubulogenesis). The data set is classed as cell-based, human. The following applies: for tubule formation: 6 h; for IC50: Homo sapiens, HUVEC, endothelial tubule network assay, anti-angiogenic activity, read-out: IC50 value; for remarks: remark on IC50 versus sunitinib. As for the experimental part: FIG. 2 represents effect of Compound 1 on capillary tube formation of HUVECs. Endothelial cells in Matrigel were incubated with ECM basal medium in the presence of compound 1 at the indicated concentrations for 6 h. Cell viability was assessed by Calcein-AM dye added few min. before the completion of 6 h. then photographs at 10×magnification were taken using an inverted microscope. The tubule length of HUVECs was quantified by Leica QWin software. Tubule network formation is expressed as a percentage of that vehicle (0.1% DMSO) treated cells (control).
FIG. 9 represents effect of racemic mixture (chiral isomer 1-1 and chiral isomer 2-1) of Compound 1 on capillary tube formation of HUVECs. Endothelial cells seeded in matrigel were incubated at the indicated concentrations of compound 1 racemic mixtures (1-1 and 2-1) with ECM basal medium for 6 h. Calcein-AM treatment was added to the ECs few minutes before completion of 6 h and pictures were captured using an inverted microscope at 10×magnification. The tubular structures of HUVECs were measured using Leica QWin software and tubulogenesis was expressed as a % of that vehicle (0.1% DMSO) treated cells (control) well.
HUVEC cells were incubated with or without sunitinib (20 nM) for 6 h at indicated concentrations of chiral isomers of Compound 1 (1-1 and 2-1). Photographs were taken using an inverted microscope at 10×magnification after Calcein-AM treatment to the ECs few minutes before completion of 6 h. The tubule length of HUVECs was quantified by Leica QWin software represented as a % of that vehicle (0.1% DMSO) treated cells (control) well.
To examine the effect of Compound 1 on angiogenesis, capillary tube formation assay was performed on regular or reduced growth factor Matrigel, taking VEGF (50 ng/mL) treated cells as a positive control and sunitinib (50 nM) as a negative control (FIG. 2). HUVECs seeded onto the matrigel with compound 1 at different concentrations of (10 μM, 5 μM, 1 μM, 800 nM, 500 nM, 250 nM, 125 nM, 75 nM, 50 nM, 25 nM and 10 nM) were incubated for six hours.
HUVECs (Human Umbilical Vein Endothelial Cells) were seeded onto the pre-coated matrigel (CORNING; 354230) in 96 wells plate at the rate of 11000 cells/well in incomplete ECM basal medium. Control group received vehicle, VEGF at 50 ng/mL as a positive and sunitinib at 50 nM as a negative control were used. Compound 1 at different dose concentrations (10 μM, 5 μM, 1 μM, 800 nM, 500 nM, 250 nM, 100 nM, 75 nM, 50 nM and 25 nM) were employed on seeded HUVECs in incomplete medium. Post 6 h of incubation Calcein-AM (Invitrogen) was added to all the respective groups and then the tubule pattern was observed and photographs were taken using an inverted fluorescent microscope (DM 6000, Leica Microsystems, USA). Relative tubule lengths were measured using Leica Q-Win software version 3.5.1. (Leica Microsystems, Switzerland).

Data set [2] in a line: Intramuscular pharmacokinetic study of chiral isomers 1 and 2. It is filed as in vivo, male Sprague Dawley (SD) rats. The following applies: IM 20 mg/kg. As for the experimental part: In vivo pharmacokinetic study was performed in male Sprague Dawley (SD) rats (n=4). Intramuscular (IM) formulation of compound 1 Chiral 1 and 2 were prepared by individually dissolving accurately weighed quantity of compound 1, chiral isomers 1 and 2 (20 mg) in 1 mL of olive oil followed by vortexing for 2 min and sterilize through syringe filter. Blood samples were collected from the retro orbital plexus of rats under light ether anesthesia into microfuge tubes containing heparin as an anti-coagulant at 0.25, 0.5, 1, 3, 5, 7, 9, 24, 30, 48 and 72 hours post-dosing after intramuscular dose. Plasma sample was harvested by centrifuging the blood at 13000 rpm for 10 min on Sigma 1-15 K (Frankfurt, Germany) and stored frozen at −70±10° C. until bioanalysis. Each plasma sample (100 μl) was processed using protein precipitation method using 200 μl acetonitrile containing medicarpine as internal standard (I.S.) as protein precipitant, and 10 μl of the supernatant was injected for LC-MS/MS.

The nature of data set [3]: Intramuscular pharmacokinetic study of bulk compound 1 and chiral isomers. The following applies: IM 20 mg/kg. The data set is classed as in vivo, male Sprague Dawley (SD) rats. As for the experimental part: In vivo pharmacokinetic study was performed in male Sprague Dawley (SD) rats (n=4). Intramuscular (IM) formulation of bulk of compound 1 as well as chiral isomer-1 and chiral isomer-2 was prepared by dissolving accurately weighed quantity of compound 1 (20 mg) in 1 mL of olive oil followed by vortexing for 2 min and sterilize through syringe filter. Blood samples were collected from the retro orbital plexus of rats under light ether anesthesia into microfuge tubes containing heparin as an anti-coagulant at 0.25, 0.5, 1, 3, 5, 7, 9, 24, 30, 48 and 72 hours post-dosing after intramuscular dose. Plasma sample was harvested by centrifuging the blood at 13000 rpm for 10 min on Sigma 1-15 K (Frankfurt, Germany) and stored frozen at −70±10° C. until bioanalysis. Each plasma sample (100 μl) was processed using protein precipitation method using 200 μl acetonitrile containing medicarpine as internal standard (I.S.) as protein precipitant, and 10 μl of the supernatant was injected for LC-MS/MS.

[4] abbreviates: male, Sprague-Dawley, rat, plasma, intramuscular, 0.25 h.
Where [5] appears, read: male, Sprague-Dawley, rat, plasma, intramuscular, 0.5 h.
[6] abbreviates: male, Sprague-Dawley, rat, plasma, intramuscular, 1 h.
Where [7] appears, read: male, Sprague-Dawley, rat, plasma, intramuscular, 3 h.
Setting [8] is: male, Sprague-Dawley, rat, plasma, intramuscular, 5 h.
Where [9] appears, read: male, Sprague-Dawley, rat, plasma, intramuscular, 7 h.
Where [10] appears, read: male, Sprague-Dawley, rat, plasma, intramuscular, 9 h.
The mark [11] stands for this setting: male, Sprague-Dawley, rat, plasma, intramuscular, 24 h.
[12] abbreviates: male, Sprague-Dawley, rat, plasma, intramuscular, 30 h.
[13] abbreviates: male, Sprague-Dawley, rat, plasma, intramuscular, 48 h.
The mark [14] stands for this setting: male, Sprague-Dawley, rat, plasma, intramuscular, 72 h.
Where [15] appears, read: male, Sprague-Dawley, rat, plasma, mean ± S.D., n = 4.
Where [16] appears, read: male, Sprague-Dawley, rat, plasma, mean ± S.D., n = 4, read-out: AUC0-72.
The mark [17] stands for this setting: male, Sprague-Dawley, rat, plasma, mean ± S.D., n = 4, read-out: Cmax.

For `CCOC(=O)[C@H]1N=C1CCc1ccc(OC)cc1` [Chiral isomer (1-1)], the tubule formation entry in data set [1] (100 nM combined with sunitinib at 20 nM) is on record as “approximately 15%”; in data set [1] (250 nM), 100%; in data set [1] (500 nM), 50%; in data set [1] (1 μM), 50%. The concentration at 0.25 h in data set [2] (setting [4]) was found to be 1520 ± 360 ng/mL. Further, the concentration at 0.5 h in data set [2] (setting [5]) was 2150 ± 830 ng/mL. Moreover, the concentration at 1 h in data set [2] (setting [6]) is 3020 ± 1330 ng/mL. This compound had a concentration at 3 h in data set [2] (setting [7]) of 3170 ± 940 ng/mL. This compound also gave a concentration at 5 h in data set [2] (setting [8]) of 3570 ± 100 ng/mL. The concentration at 7 h in data set [2] (setting [9]) stood at 3580 ± 750 ng/mL. Besides, in data set [2] (setting [10]), the concentration at 9 h stood at 4810 ± 1560 ng/mL. The concentration at 24 h in data set [2] (setting [11]) was found to be 1930 ± 380 ng/mL. This compound came in with a concentration at 30 h in data set [2] (setting [12]) of 1550 ± 360 ng/mL. The compound further returned a concentration at 48 h in data set [2] (setting [13]) of 545 ± 90 ng/mL. The concentration at 72 h in data set [2] (setting [14]) was determined as 110 ± 40 ng/mL.
In the case of `CCOC(=O)C1N=C1CCc1ccc(C(C)(C)C)cc1` (stereo not drawn) [Compound 9, Ethyl 3-(4-(tert-butyl)phenethyl)-2H-azirine-2-carboxylate], the IC50 in data set [1] is 0.55 µM.
Consider `CCOC(=O)C1N=C1CCc1ccc2ccccc2c1` (stereo not drawn) [Compound 27, Ethyl 3-(2-(naphthalen-2-yl)ethyl)-2H-azirine-2-carboxylate], for which, in data set [1], the 50% inhibitory concentration (IC50) turned out to be 0.1 µM and the remarks entry is on record as “comparable to sunitinib”.
On to `COc1ccc(CC2(C(=O)OCc3ccccc3)N=C2C)cc1` (stereo not drawn) [Compound 18, Benzyl 2-(4-methoxybenzyl)-3-methyl-2H-azirine-2-carboxylate], for which the IC50 in data set [1] is 0.4 µM.
As for `COc1ccc(CCC2=NC2c2nnn[nH]2)cc1` (stereo not drawn) [Compound 51, 5-(3-(4-Methoxyphenethyl)-2H-azirin-2-yl)-1H-tetrazole], in data set [1], the half-inhibitory concentration (IC50) amounted to 0.1 µM and the remarks result is “comparable to sunitinib”.
As to `CCOC(=O)C1N=C1CCc1ccc(N(C)C)cc1` (stereo not drawn) [Compound 47, Ethyl 3-(4-(dimethylamino)phenethyl)-2H-azirine-2-carboxylate], in data set [1], the IC50 amounted to 0.5 µM.
The same measure, in the same setting: to `CCOC(=O)C1N=C1CCCc1ccc2occc2c1` (stereo not drawn) [Compound 40, Ethyl-3-(3-(benzofuran-5-yl)propyl)-2H-azirine-2-carboxylate] belongs 0.5 µM.
Consider `CCOC(=O)[C@H]1N=C1CCc1ccc(OC)cc1` (single isomer, unassigned) [Chiral isomer (1-1)], for which the Cl in data set [2] (mean ± S.D., n = 4) is 2.67 ± 0.5 mL/min/kg; in data set [3] (mean ± S.D., n = 4), 3.03 ± 0.415 mL/min/kg. The Vd turned out to be 3.2 ± 0.84 L/kg in data set [2] (mean ± S.D., n = 4) and 4.273 ± 1.167 L/kg in data set [3] (mean ± S.D., n = 4). Moreover, the AUC(0-inf) in data set [2] (setting [15]) worked out at 121 ± 24.1 µg·h/mL; in data set [3] (setting [15]), 111 ± 15 µg·h/mL. The half-life was 13.3 ± 1.51 h in data set [2] (setting [15]) and 16 ± 2.38 h in data set [3] (setting [15]). The AUC(0-t) was 118 ± 24.8 µg·h/mL in data set [2] (setting [16]) and 108 ± 15.9 µg·h/mL in data set [3] (setting [16]). For the same compound, the Cmax stood at 4810 ± 1560 ng/mL in data set [2] (setting [17]) and 3910 ± 847 ng/mL in data set [3] (setting [17]). The Tmax came to 9 h in data set [2] (male, Sprague-Dawley, rat, plasma, read-out: Tmax) and 6.33 ± 4.62 h in data set [3] (male, Sprague-Dawley, rat, plasma, mean ± S.D., n = 4, read-out: Tmax). Besides, in data set [3] (setting [4]), the concentration at 0.25 h is 1680 ± 1060 ng/mL. In data set [3] (setting [5]), this compound came in with a concentration at 0.5 h of 2090 ± 1650 ng/mL. For the same compound, the concentration at 1 h in data set [3] (setting [6]) is 2580 ± 1960 ng/mL. The same compound yielded a concentration at 3 h in data set [3] (setting [7]) of 2560 ± 590 ng/mL. In addition, the concentration at 5 h in data set [3] (setting [8]) came out at 2460 ± 880 ng/mL. Besides, the concentration at 7 h in data set [3] (setting [9]) turned out to be 2120 ± 940 ng/mL. This compound also had a concentration at 9 h in data set [3] (setting [10]) of 3440 ± 260 ng/mL. The same compound had a concentration at 24 h in data set [3] (setting [11]) of 2470 ± 570 ng/mL. Further, the concentration at 30 h in data set [3] (setting [12]) stood at 1730 ± 150 ng/mL. For the same compound, the concentration at 48 h in data set [3] (setting [13]) was 593 ± 220 ng/mL. This compound showed a concentration at 72 h in data set [3] (setting [14]) of 109 ± 40 ng/mL. The mean residence time MRT in data set [3] (male, Sprague-Dawley, rat, plasma, mean ± S.D., n = 4, read-out: MRT) was 21 ± 0.463 h.
Consider `CCOC(=O)C1N=C1CCCCc1ccc2c(c1)CCO2` (stereo not drawn) [Compound 42, Ethyl 3-(4-(2,3-dihydrobenzofuran-5-yl)butyl)-2H-azirine-2-carboxylate], for which, in data set [1], the IC50 is 0.025 µM and the remarks entry was “comparable to sunitinib”.

In general, IC50 refers to the concentration needed to halve the response being measured. As usually defined, the AUC(0-inf) is total exposure, with the tail of the curve extrapolated. Usually half-life stands for how long it takes for the measured level to halve. Lower therefore signals rapid decline. In general, Cmax refers to the peak of the concentration-time curve. In general, Tmax refers to the time from dosing to the highest level. Broadly, the MRT is a mean duration of stay, worked out from the concentration-time curve.
